# Data reported in PubChem BioAssay (NCI).
#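 Values below derive from 48-hour exposures of cells grown in 96-well plates, with endpoints linearly interpolated between the two concentrations bracketing the appropriate inhibition level. GI50: concentration for 50% inhibition of growth. TGI marks complete inhibition of growth.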 Where a SMILES comes first, the peptide text is derived from it. [ ]: non-standard residue; d: D form. ξ: configuration not given here. Pentanoyl(2-O,4-OH,5-Cl) = O=C(O)C(O)CC(O)CCl; Ile(3ξ) = CCC(C)[C@H](N)C(=O)O; NMeV = CN[C@H](C(=O)O)C(C)C; NMeA = CN[C@@H](C)C(=O)O; βAla = NCCC(=O)O
# Legend:
# Assay in all cases: DTP human tumour cell line panel, 48 h
# HOP-92 NSCLC = test system: HOP-92 NSCLC
# MDA-MB-231 breast = test system: MDA-MB-231 breast
# NCI-H226 lung = test system: NCI-H226 lung
# CCRF-CEM leukemia = test system: CCRF-CEM leukemia
# HCC-2998 colon = test system: HCC-2998 colon
# SF-268 CNS = test system: SF-268 CNS
# A498 renal = test system: A498 renal
# SR leukemia = test system: SR leukemia
SMILES,TGI (HOP-92 NSCLC) [µM],TGI (MDA-MB-231 breast) [µM],TGI (NCI-H226 lung) [µM],TGI (CCRF-CEM leukemia) [µM],TGI (HCC-2998 colon) [µM],TGI (SF-268 CNS) [µM],GI50 (HOP-92 NSCLC) [µM],GI50 (MDA-MB-231 breast) [µM],GI50 (NCI-H226 lung) [µM],GI50 (HCC-2998 colon) [µM],GI50 (SF-268 CNS) [µM],GI50 (A498 renal) [µM],TGI (A498 renal) [µM],TGI (SR leukemia) [µM],GI50 (SR leukemia) [µM],GI50 (CCRF-CEM leukemia) [µM]
NC(=O)N/N=C(\Cc1cc(=O)oc2cc(O)ccc12)C(=O)Nc1ccccc1C(N)=O,> 100,> 100,> 100,> 100,> 100,> 100,,,,,,,,,,
CN1CCN(c2cc(F)c(NC3=C(Cl)C(=O)c4ncccc4C3=O)c(F)c2)CC1,3.22,3.87,39.5,,3.55,3.44,1.69,1.94,15.7,1.84,1.7,10.9,23.7,,,
C[C@]12CC[C@H]3[C@@H](CCC4=CC(=O)CC[C@@]43C)[C@]1(O)CC[C@]2(O)C(=O)CO,,> 100,> 100,> 100,> 100,> 100,,,,,,,> 100,> 100,,
N#Cc1cnc2ccc(NCc3cnc[nH]3)cc2c1Nc1ccc(F)c(Cl)c1,> 100,> 100,> 100,,> 100,> 100,1.08,17,> 100,> 100,5.97,,,> 100,5.65,
Cc1cc[c]([Sb]2[O]C(CO)C(C(O)C(O)C(=O)O)[O]2)cc1 (centres undefined),> 100,> 100,> 100,> 100,,> 100,> 100,78,39.9,,> 100,32.3,99.7,> 100,47.2,> 100
COc1ccc2c(c1)c(-c1ccc(-c3cn(C)c4ccc(OC)cc34)s1)cn2C,,> 100,> 100,,> 100,> 100,,> 100,> 100,> 100,> 100,> 100,> 100,> 100,> 100,
Cc1cc2c(cc1Cl)SC(=Nc1ccc(Cl)cc1)N(S(=O)(=O)c1ccc(Br)s1)S2(=O)=O,46.1,38.9,47.1,> 100,,> 100,12.1,12.9,14,,32.2,5.02,26.2,> 100,5.11,10.1
COc1ccc(-c2cc(=O)c3c(C)ccnc3[nH]2)cc1,,> 100,> 100,44.8,> 100,44.3,,,,,,,41.4,,,
Clc1ccc2c(NC3CCC(NC4CCCCC4)CC3)ccnc2c1 (centres undefined),9.74,23.8,46.5,,8.13,25.6,1.2,5.94,12.8,2.49,10.5,4.07,27.4,,,
O=c1[nH]c(=O)n(Cc2ccc(C34CC5CC(CC(C5)C3)C4)c(O)c2)cc1F,26.4,28.9,32.6,,28.1,65.6,13.5,14.3,16.7,14.5,18.5,10.2,22.1,19.9,5.32,
"CCC(C)[C@@H]1NC(=O)[C@@H]2CCCN2C(=O)C(CC(O)CCl)OC(=O)CCNC(=O)[C@H](C)N(C)C(=O)[C@H](C(C)C)N(C)C1=O (some centres undefined) (cyclo([Ile(3ξ)][NMeV][NMeA][βAla][Pentanoyl(2-O,4-OH,5-Cl)]P))",8.13,> 100,> 100,> 100,,> 100,,,,,,,> 93.5,> 100,,
CC(NC(=O)c1ccc(Cl)c(Cl)c1)c1ccc(-c2ccccc2)cc1 (centres undefined),> 100,> 100,78.7,,> 100,> 100,,,,,,,> 100,40.3,,
C=CCn1c(SCC(=O)Nc2ccc(C(=O)/C=C/c3cc(OC)c(OC)c(OC)c3)cc2)nnc1-c1cc(OC)c(OC)c(OC)c1,56.6,> 100,,> 100,4.48,64.6,12.5,3.81,,2.05,3.99,7.4,20.3,> 100,2.34,3.33
OC(c1ccccc1)c1c(-c2ccccc2)[nH]c(-c2ccccc2)c1C(O)c1ccccc1 (centres undefined),5.46,,7.32,6.08,22.4,23,,,,,,,8.73,8.25,,
